We go through 2 molecules from PMC11490872, “Drug-resistant menin variants retain high binding affinity and interactions with MLL1” (The Journal of Biological Chemistry, 2024).

One assay deals with menin T349M. Further details: method as in PMID 36922589. To be noted: versus wild-type menin; cited from earlier work.
For the next assay, the system named is menin M327I. More on the design: method as in PMID 36922589. To be noted: versus wild-type menin; cited from earlier work.
The target in the next assay is T1, menin^WT (Homo sapiens, UniProt O00255).
T1 construct: Full-length human menin was expressed in BL21(DE3) cells; thioredoxin-His6 (cleaved yes); made in house; host or cells: E. coli BL21(DE3)
T1 sequence (O00255 1-610): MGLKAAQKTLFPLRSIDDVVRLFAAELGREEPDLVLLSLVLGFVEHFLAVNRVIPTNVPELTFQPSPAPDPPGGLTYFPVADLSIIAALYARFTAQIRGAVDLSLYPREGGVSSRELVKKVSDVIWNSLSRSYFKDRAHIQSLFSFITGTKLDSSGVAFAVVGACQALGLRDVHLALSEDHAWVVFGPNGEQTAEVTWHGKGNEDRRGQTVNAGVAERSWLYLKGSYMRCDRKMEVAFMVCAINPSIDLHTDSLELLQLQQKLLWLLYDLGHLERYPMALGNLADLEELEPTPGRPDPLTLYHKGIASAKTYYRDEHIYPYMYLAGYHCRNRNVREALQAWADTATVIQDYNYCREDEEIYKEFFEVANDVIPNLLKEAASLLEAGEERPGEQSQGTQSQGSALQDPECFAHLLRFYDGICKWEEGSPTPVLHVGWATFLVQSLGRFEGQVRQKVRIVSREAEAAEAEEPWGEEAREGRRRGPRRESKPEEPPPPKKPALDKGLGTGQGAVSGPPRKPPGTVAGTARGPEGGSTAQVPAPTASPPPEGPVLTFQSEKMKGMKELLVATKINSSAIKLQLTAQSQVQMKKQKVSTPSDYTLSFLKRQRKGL
Nature of the assay: ITC binding of MLL1 fragments to menin^WT. The procedure:
Menin and MLL1 fragments were dialyzed at 4 °C against a 50 mM sodium phosphate pH 7.5, 50 mM NaCl, 1 mM TCEP buffer, and degassed prior to measurement. The titrations were performed using the VP-ITC system (MicroCal) at 25 °C. The calorimetric cell, which contained menin (concentrations in the 5–10 μM range), was titrated with the MLL1^160 and MLL1^4-15 derived peptides (concentration range 40–100 μM) injected in 10-μL aliquots. Data was analyzed using Origin 7.0 (OriginLab) to obtain Kd, stoichiometry, entropy, and enthalpy ([2]). Experiments with WT, M327I, T349M, and G331R menin and MLL1^160 or MLL1^4-15 were run in duplicate. Experiments with G331D menin and MLL1^160 were run in duplicate while experiments with G331D and MLL1^4-15 were run in quadruplicate.

Like-named read-outs stand apart in the source and are kept apart here.

Broadly, the Kd is the free concentration of one partner at which half of the binding sites on the other are occupied at equilibrium, for simple one-to-one binding.

For `CCN(C(=O)c1cc(F)ccc1Oc1cncnc1N1CC2(CCN(C[C@H]3CC[C@H](NS(=O)(=O)CC)CC3)CC2)C1)C(C)C` [Revumenib, reference compound], the “reduction of binding by T349M mutation” value with menin T349M is 111 fold. The “reduction of binding by M327I mutation” value in the assay with menin M327I is reported as 51 fold.

B1: MLL1^160: N-terminal 160 amino acids of human MLL1, Cys2 mutated to alanine, recombinant (protein)
chain: MAHSARWRFPARPGTTGGGGGGGRRGLGGAPRQRVPALLLPPGPPVGGGGPGAPPSPPAVAAAAAAAGSSGAGVPGGAAAASAASSSSASSSSSSSSSASSGPALLRVGPGFDAALQVSAAIGTNLRRFRAVFGESGGGGGSGEDEQFLGFGSDEEVRVR
modifications: The printed 'Cys2' is the single N-terminal cysteine, Cys5 in the entry (peptide S4-A5-R6); Trx-His6 tag cleaved
As to B1, the Kd in the assay with menin^WT (ITC summary Fig. 1B, values marked *, n = 2, read-out: WT Kd (nM), ITC) was determined as 0.5 ± 0.3 nM; with menin^WT (ITC, representative binding isotherm Fig. 1A, 25 °C, read-out: Kd), 0.5 ± 0.2 nM.
